Measurements: PubChem BioAssay (NCI)
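Briefly, cells in 96-well plates were exposed to five compound concentrations for 48 h, and endpoints were estimated by linear interpolation. At the TGI there is no net growth.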

How the values were obtained:
Assay in all cases: DTP human tumour cell line panel, 48 h
MOLT-4 leukemia = system: MOLT-4 leukemia
HCC-2998 colon = system: HCC-2998 colon
OVCAR-5 ovarian = system: OVCAR-5 ovarian
UACC-62 melanoma = system: UACC-62 melanoma
EKVX NSCLC = system: EKVX NSCLC
A549 NSCLC = system: A549 NSCLC
SW-620 colon = system: SW-620 colon
SK-MEL-28 melanoma = system: SK-MEL-28 melanoma
SN12C renal = system: SN12C renal
NCI/ADR-RES ovarian = system: NCI/ADR-RES ovarian
PC-3 prostate = system: PC-3 prostate
HCT-116 colon = system: HCT-116 colon
SK-MEL-2 melanoma = system: SK-MEL-2 melanoma
OVCAR-8 ovarian = system: OVCAR-8 ovarian
M14 melanoma = system: M14 melanoma
NCI-H23 lung = system: NCI-H23 lung
SNB-19 CNS = system: SNB-19 CNS
IGROV1 ovarian = system: IGROV1 ovarian
SK-OV-3 ovarian = system: SK-OV-3 ovarian
HOP-92 NSCLC = system: HOP-92 NSCLC
NCI-H460 lung = system: NCI-H460 lung
A498 renal = system: A498 renal
TK-10 renal = system: TK-10 renal
CCRF-CEM leukemia = system: CCRF-CEM leukemia
OVCAR-3 ovarian = system: OVCAR-3 ovarian
MDA-MB-435 = system: MDA-MB-435
SR leukemia = system: SR leukemia
UACC-257 melanoma = system: UACC-257 melanoma
UO-31 renal = system: UO-31 renal
HCT-15 colon = system: HCT-15 colon
CAKI-1 renal = system: CAKI-1 renal
RXF 393 renal = system: RXF 393 renal
LOX IMVI melanoma = system: LOX IMVI melanoma
ACHN renal = system: ACHN renal
SK-MEL-5 melanoma = system: SK-MEL-5 melanoma
SNB-75 CNS = system: SNB-75 CNS
COLO 205 colon = system: COLO 205 colon
RPMI-8226 leukemia = system: RPMI-8226 leukemia
SF-295 CNS = system: SF-295 CNS
KM12 colon = system: KM12 colon
BT-549 breast = system: BT-549 breast
HOP-62 NSCLC = system: HOP-62 NSCLC
OVCAR-4 ovarian = system: OVCAR-4 ovarian
MDA-N = system: MDA-N
786-0 renal = system: 786-0 renal
K-562 leukemia = system: K-562 leukemia
U251 CNS = system: U251 CNS
T-47D breast = system: T-47D breast
MCF7 breast = system: MCF7 breast
HL-60(TB) leukemia = system: HL-60(TB) leukemia
DU-145 prostate = system: DU-145 prostate
MALME-3M melanoma = system: MALME-3M melanoma
HT29 colon = system: HT29 colon
SF-539 CNS = system: SF-539 CNS
NCI-H226 lung = system: NCI-H226 lung
HS 578T breast = system: HS 578T breast
SF-268 CNS = system: SF-268 CNS
MDA-MB-231 breast = system: MDA-MB-231 breast
NCI-H522 lung = system: NCI-H522 lung

With `COc1ccc2nc3n(c2c1)C(c1c(F)cccc1Cl)SC3` (stereo unspecified) the TGI (MOLT-4 leukemia) was over 100 µM, the TGI (HCC-2998 colon) was over 100 µM and the TGI (OVCAR-5 ovarian) was over 100 µM. The TGI (UACC-62 melanoma) was over 100 µM, the TGI (EKVX NSCLC) was over 100 µM and the TGI (A549 NSCLC) was over 100 µM. For the same compound, the TGI (SW-620 colon) was over 100 µM, the TGI (SK-MEL-28 melanoma) was over 100 µM and the TGI (SN12C renal) was over 100 µM. For the same compound, the TGI (NCI/ADR-RES ovarian) was over 100 µM, the TGI (PC-3 prostate) was over 100 µM and the TGI (HCT-116 colon) was over 100 µM. For the same compound, the TGI (SK-MEL-2 melanoma) was over 100 µM, the TGI (OVCAR-8 ovarian) was over 100 µM and the TGI (M14 melanoma) was over 100 µM. For the same compound, the TGI (NCI-H23 lung) was over 100 µM, the TGI (SNB-19 CNS) was over 100 µM and the TGI (IGROV1 ovarian) was over 100 µM. For the same compound, the TGI (SK-OV-3 ovarian) was over 100 µM, the TGI (HOP-92 NSCLC) was over 100 µM and the TGI (NCI-H460 lung) was over 100 µM. For the same compound, the TGI (A498 renal) was over 100 µM, the TGI (TK-10 renal) was over 100 µM and the TGI (CCRF-CEM leukemia) was over 100 µM. The TGI (OVCAR-3 ovarian) was over 100 µM, the TGI (MDA-MB-435) was over 100 µM and the TGI (SR leukemia) was over 100 µM. It also gave a TGI (UACC-257 melanoma) of over 100 µM, a TGI (UO-31 renal) of over 100 µM and a TGI (HCT-15 colon) of over 100 µM. It also gave a TGI (CAKI-1 renal) of over 100 µM, a TGI (RXF 393 renal) of over 100 µM and a TGI (LOX IMVI melanoma) of over 100 µM. For the same compound, the TGI (ACHN renal) was over 100 µM, the TGI (SK-MEL-5 melanoma) was over 100 µM and the TGI (SNB-75 CNS) was over 100 µM. The TGI (COLO 205 colon) was over 100 µM, the TGI (RPMI-8226 leukemia) was over 100 µM and the TGI (SF-295 CNS) was over 100 µM. For the same compound, the TGI (KM12 colon) was over 100 µM, the TGI (BT-549 breast) was over 100 µM and the TGI (HOP-62 NSCLC) was over 100 µM. For the same compound, the TGI (OVCAR-4 ovarian) was over 100 µM, the TGI (MDA-N) was over 100 µM and the TGI (786-0 renal) was over 100 µM. It also gave a TGI (K-562 leukemia) of over 100 µM, a TGI (U251 CNS) of over 100 µM and a TGI (T-47D breast) of over 100 µM. The TGI (MCF7 breast) was over 100 µM, the TGI (HL-60(TB) leukemia) was over 100 µM and the TGI (DU-145 prostate) was over 100 µM.

Compound `Cc1cc2nn(C3CCCO3)nc2cc1C` (stereo unspecified) has a TGI (MALME-3M melanoma) of over 100 µM, a TGI (MOLT-4 leukemia) of over 100 µM and a TGI (HCC-2998 colon) of over 100 µM. It also gave a TGI (OVCAR-5 ovarian) of over 100 µM, a TGI (UACC-62 melanoma) of over 100 µM and a TGI (EKVX NSCLC) of over 100 µM. For the same compound, the TGI (A549 NSCLC) was over 100 µM, the TGI (SN12C renal) was over 100 µM and the TGI (NCI/ADR-RES ovarian) was over 100 µM. For the same compound, the TGI (PC-3 prostate) was over 100 µM, the TGI (HCT-116 colon) was over 100 µM and the TGI (HT29 colon) was over 100 µM. The TGI (SK-MEL-2 melanoma) was over 100 µM, the TGI (OVCAR-8 ovarian) was over 100 µM and the TGI (M14 melanoma) was over 100 µM. It also gave a TGI (NCI-H23 lung) of over 100 µM, a TGI (SF-539 CNS) of over 100 µM and a TGI (NCI-H226 lung) of over 100 µM. It also gave a TGI (IGROV1 ovarian) of over 100 µM, a TGI (SK-OV-3 ovarian) of over 100 µM and a TGI (NCI-H460 lung) of over 100 µM. It also gave a TGI (HS 578T breast) of over 100 µM, a TGI (A498 renal) of over 100 µM and a TGI (TK-10 renal) of over 100 µM. For the same compound, the TGI (CCRF-CEM leukemia) was over 100 µM, the TGI (OVCAR-3 ovarian) was over 100 µM and the TGI (SF-268 CNS) was over 100 µM. The TGI (MDA-MB-435) was over 100 µM, the TGI (SR leukemia) was over 100 µM and the TGI (MDA-MB-231 breast) was over 100 µM. The TGI (NCI-H522 lung) was over 100 µM, the TGI (UACC-257 melanoma) was over 100 µM and the TGI (HCT-15 colon) was over 100 µM. For the same compound, the TGI (CAKI-1 renal) was over 100 µM, the TGI (RXF 393 renal) was over 100 µM and the TGI (SK-MEL-5 melanoma) was over 100 µM. The TGI (SNB-75 CNS) was over 100 µM, the TGI (COLO 205 colon) was over 100 µM and the TGI (SF-295 CNS) was over 100 µM. It also gave a TGI (HOP-62 NSCLC) of over 100 µM, a TGI (OVCAR-4 ovarian) of over 100 µM and a TGI (MDA-N) of over 100 µM. It also gave a TGI (786-0 renal) of over 100 µM, a TGI (K-562 leukemia) of over 100 µM and a TGI (U251 CNS) of over 100 µM. For the same compound, the TGI (T-47D breast) was over 100 µM, the TGI (MCF7 breast) was over 100 µM and the TGI (DU-145 prostate) was over 100 µM.

Compound `Nc1nnnn1NC(=O)NCCCl` has a TGI (MALME-3M melanoma) of over 10 µM, a TGI (MOLT-4 leukemia) of over 10 µM and a TGI (HCC-2998 colon) of over 10 µM. For the same compound, the TGI (UACC-62 melanoma) was over 10 µM, the TGI (EKVX NSCLC) was over 10 µM and the TGI (A549 NSCLC) was over 10 µM. It also gave a TGI (SW-620 colon) of over 10 µM, a TGI (SK-MEL-28 melanoma) of over 10 µM and a TGI (SN12C renal) of over 10 µM. For the same compound, the TGI (NCI/ADR-RES ovarian) was over 10 µM, the TGI (PC-3 prostate) was over 10 µM and the TGI (HCT-116 colon) was over 10 µM. It also gave a TGI (HT29 colon) of over 10 µM, a TGI (SK-MEL-2 melanoma) of over 10 µM and a TGI (OVCAR-8 ovarian) of over 10 µM. It also gave a TGI (M14 melanoma) of over 10 µM, a TGI (NCI-H23 lung) of over 10 µM and a TGI (SF-539 CNS) of over 10 µM. It also gave a TGI (SNB-19 CNS) of over 10 µM, a TGI (NCI-H226 lung) of over 10 µM and a TGI (IGROV1 ovarian) of over 10 µM. For the same compound, the TGI (SK-OV-3 ovarian) was over 10 µM, the TGI (HOP-92 NSCLC) was over 10 µM and the TGI (NCI-H460 lung) was over 10 µM. The TGI (HS 578T breast) was over 10 µM, the TGI (A498 renal) was over 10 µM and the TGI (TK-10 renal) was over 10 µM. It also gave a TGI (CCRF-CEM leukemia) of over 10 µM, a TGI (OVCAR-3 ovarian) of over 10 µM and a TGI (SF-268 CNS) of over 10 µM. It also gave a TGI (MDA-MB-435) of over 10 µM, a TGI (SR leukemia) of over 10 µM and a TGI (MDA-MB-231 breast) of over 10 µM. The TGI (NCI-H522 lung) was over 10 µM, the TGI (UACC-257 melanoma) was over 10 µM and the TGI (UO-31 renal) was over 10 µM. For the same compound, the TGI (HCT-15 colon) was over 10 µM, the TGI (CAKI-1 renal) was over 10 µM and the TGI (RXF 393 renal) was over 10 µM. For the same compound, the TGI (LOX IMVI melanoma) was over 10 µM, the TGI (ACHN renal) was over 10 µM and the TGI (SK-MEL-5 melanoma) was over 10 µM. It also gave a TGI (SNB-75 CNS) of over 10 µM, a TGI (COLO 205 colon) of over 10 µM and a TGI (RPMI-8226 leukemia) of over 10 µM. It also gave a TGI (SF-295 CNS) of over 10 µM, a TGI (KM12 colon) of over 10 µM and a TGI (HOP-62 NSCLC) of over 10 µM. It also gave a TGI (OVCAR-4 ovarian) of over 10 µM, a TGI (MDA-N) of over 10 µM and a TGI (786-0 renal) of over 10 µM. The TGI (K-562 leukemia) was over 10 µM, the TGI (U251 CNS) was over 10 µM and the TGI (T-47D breast) was over 10 µM. The TGI (MCF7 breast) was over 10 µM, the TGI (HL-60(TB) leukemia) was over 10 µM and the TGI (DU-145 prostate) was over 10 µM.
